Measured values: patent US6221865A, “Inhibitors of protein isoprenyl transferases” (priority 1998, dated 2001)
Structures can show the parent of a compound that is named as a salt.

Molecular target: T1, protein farnesyltransferase (Rattus norvegicus, UniProt Q02293+Q04631)
T1 construct: The enzyme is purified according to Reiss, Y., et al., Cell, 62: 81-88 (1990), utilizing steps one through three; from tissue; host or cells: rat brain
Test: Inhibition of farnesyltransferase (scintillation proximity assay, rat brain enzyme, biotin-K Ras B fragment substrate)
Assay type: biochemical
Details: 1 × 10^-5 M (Table 1)
Summary of the method: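 Enzyme from rat brain, partly purified (steps one to three), assayed by SPA kit using 0.1 mM final biotin-K Ras B peptide as prenyl acceptor rather than biotin-lamin. Activity given as percent inhibition.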

T1 sequence (Q02293 whole entry, one chain of several): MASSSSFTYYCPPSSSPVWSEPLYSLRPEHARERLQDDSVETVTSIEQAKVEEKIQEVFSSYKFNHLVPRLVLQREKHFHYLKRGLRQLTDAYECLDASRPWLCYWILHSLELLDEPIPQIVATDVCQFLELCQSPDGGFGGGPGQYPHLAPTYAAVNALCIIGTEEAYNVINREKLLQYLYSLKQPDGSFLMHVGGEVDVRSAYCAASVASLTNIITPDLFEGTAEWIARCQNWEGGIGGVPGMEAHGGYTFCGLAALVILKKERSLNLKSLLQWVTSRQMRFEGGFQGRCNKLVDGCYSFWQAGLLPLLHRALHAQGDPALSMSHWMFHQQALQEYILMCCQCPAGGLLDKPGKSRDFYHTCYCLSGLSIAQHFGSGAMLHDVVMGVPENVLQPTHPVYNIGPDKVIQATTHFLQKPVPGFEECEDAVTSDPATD

Q: For CSCC[C@H](NC(=O)c1ccc(NC(=O)CCN)cc1-c1ccccc1)C(=O)O [Example 750], which “% inhibition of farnesyltransferase at 1 × 10^-5 M” value (from here on “% inhibition … at 1 × 10^-5 M”) is on record?
A: 44%

Q: How did the “% inhibition … at 1 × 10^-5 M” value turn out when CSCC[C@H](NC(=O)c1ccc(CNc2ccc3ncccc3c2)cc1-c1ccccc1)C(=O)O [Example 708] was run?
A: 76%

Q: With CSCC[C@H](NC(=O)c1ccc(CNCCN2CCOCC2)cc1-c1ccccc1)C(=O)O [Example 365] as the compound, how does the “% inhibition … at 1 × 10^-5 M” value read?
A: 97%

Same assay, conditions: 1 × 10^-6 M (Table 2)

Q: How did the “% inhibition of farnesyltransferase at 1 × 10^-6 M” value (“% inhibition … at 1 × 10^-6 M” below) turn out when CSCC[C@H](NC(=O)c1ccc(CN(Cc2ccccc2)Cc2ccccc2)cc1-c1ccccc1)C(=O)O [Example 834] was run?
A: 55%

Q: Which “% inhibition … at 1 × 10^-6 M” value does the source give for CSCC[C@H](NC(=O)c1ccc(COC2CCN(C(=O)OC(C)(C)C)CC2)cc1-c1ccccc1C)C(=O)[O-].[Li+] [Example 808] here?
A: 88%

Q: How did the “% inhibition … at 1 × 10^-6 M” value turn out when CSCCC(NC(=O)c1ccc(CNC(CO)c2ccccc2)cc1-c1ccccc1)C(=O)O (stereo not shown) [Example 658] was run?
A: 73%

Q: Which “% inhibition … at 1 × 10^-6 M” value does the source give for CSCC[C@H](NC(=O)c1cc(Cc2ccccc2)c(COCCCc2ccccc2)cc1-c1ccccc1C)C(=O)O [Example 925] here?
A: 87%

Q: How did the “% inhibition … at 1 × 10^-6 M” value turn out when CSCC[C@H](NC(=O)c1ccc(CN(Cc2ccccc2)Cc2ccco2)cc1-c1ccccc1C)C(=O)O [Example 504] was run?
A: 90%

Q: With CSCC[C@H](NC(=O)c1ccc(COCc2ccsc2)cc1-c1ccccc1C)C(=O)[O-].[Li+] [Example 274] as the compound, how does the “% inhibition … at 1 × 10^-6 M” value read?
A: 94%

Q: For CCSC[C@H](CC1CCCCC1)NCc1ccc(C(=O)N(C)[C@@H](CCSC)C(=O)O)c(-c2ccccc2C)c1 [Example 765], which “% inhibition … at 1 × 10^-6 M” value is on record?
A: 76%

Q: CSCC[C@H](NC(=O)c1ccc(CNc2ccc(N3CCCCC3)cc2)cc1-c1ccccc1C)C(=O)O [Example 862] was tested. Which “% inhibition … at 1 × 10^-6 M” value did it give?
A: 95%

Q: CSCC[C@H](NC(=O)c1ccc(CNCCSc2ccccc2)cc1-c1ccccc1)C(=O)O [Example 667] was tested. Which “% inhibition … at 1 × 10^-6 M” value did it give?
A: 83%

Q: Which “% inhibition … at 1 × 10^-6 M” value does the source give for CSCC[C@H](NC(=O)c1ccc(COCc2cccs2)cc1-c1ccccc1C)C(=O)[O-].[Li+] [Example 273] here?
A: 96%

Q: CSCC[C@H](NC(=O)c1ccc(OCCC2CCCCC2)cc1-c1ccccc1C)C(=O)[O-].[Li+] [Example 552] was tested. Which “% inhibition … at 1 × 10^-6 M” value did it give?
A: 88%

Q: With CSCC[C@H](NC(=O)c1ccc(CN(CCCc2ccccc2)c2ccccc2)cc1-c1ccccc1C)C(=O)O [Example 508] as the compound, how does the “% inhibition … at 1 × 10^-6 M” value read?
A: 95%

Q: With CSCC[C@H](NC(=O)c1ccc(OCCC23CC4CC(CC(C4)C2)C3)cc1-c1ccccc1C)C(=O)O [Example 553] as the compound, how does the “% inhibition … at 1 × 10^-6 M” value read?
A: 92%

Q: How did the “% inhibition … at 1 × 10^-6 M” value turn out when COC(=O)[C@H](CCSC)NC(=O)c1ccc(NC(=O)[C@@H]2CSCN2)cc1-c1ccccc1.Cl [Example 164] was run?
A: 92%

Q: With CSCC[C@H](NC(=O)c1ccc(OCCCc2ccccc2)cc1-c1ccccc1C)C(=O)[O-].[Li+] [Example 879] as the compound, how does the “% inhibition … at 1 × 10^-6 M” value read?
A: 95%

Q: COC(=O)c1cscc1NCc1ccc(C(=O)N[C@@H](CCSC)C(=O)O)c(-c2ccccc2C)c1 [Example 724] was tested. Which “% inhibition … at 1 × 10^-6 M” value did it give?
A: 87%

Q: For COc1ccccc1CNCc1ccc(C(=O)N[C@@H](CCSC)C(=O)O)c(-c2ccccc2)c1 [Example 650], which “% inhibition … at 1 × 10^-6 M” value is on record?
A: 68%

Q: Which “% inhibition … at 1 × 10^-6 M” value does the source give for CSCC[C@H](NC(=O)c1ccc(CNCCN2CCCC2)cc1-c1ccccc1)C(=O)O [Example 641] here?
A: 34%

Q: CSCC[C@H](NC(=O)c1ccc(CN(Cc2ccccc2)c2ccccc2)cc1-c1ccccc1C)C(=O)O [Example 406] was tested. Which “% inhibition … at 1 × 10^-6 M” value did it give?
A: 95%

Same assay, conditions: 1 × 10^-7 M (Table 3)

Q: Which “% inhibition of farnesyltransferase at 1 × 10^-7 M” value (shortened to “% inhibition … at 1 × 10^-7 M”) does the source give for COc1ccc(-c2ccc(COCc3ccc(C(=O)N[C@@H](CCSC)C(=O)[O-])c(-c4ccccc4C)c3)o2)cc1.[Li+] [Example 446] here?
A: 91%

Q: How did the “% inhibition … at 1 × 10^-7 M” value turn out when CSCC[C@H](NC(=O)c1ccc(COCc2cnc(-c3cccc(Cl)c3)o2)cc1-c1ccccc1C)C(=O)[O-].[Li+] [Example 893] was run?
A: 87%

Q: With CSCC[C@H](NC(=O)c1ccc(CSc2nc3ccccc3c(=O)[nH]2)cc1-c1ccccc1C)C(=O)O [Example 745] as the compound, how does the “% inhibition … at 1 × 10^-7 M” value read?
A: 93%

Q: How did the “% inhibition … at 1 × 10^-7 M” value turn out when CSCC[C@H](NC(=O)c1ccc(COCCCCc2ccccc2)cc1-c1ccccc1C)C(=O)O [Example 601] was run?
A: 92%

Q: For CSCC[C@H](NC(=O)c1ccc(CSc2nnc[nH]2)cc1-c1ccccc1C)C(=O)O [Example 735], which “% inhibition … at 1 × 10^-7 M” value is on record?
A: 96%

Q: CCSC[C@H](CC1CCCCC1)N(Cc1ccc(C(=O)N[C@@H](CCSC)C(=O)O)c(-c2ccccc2C)c1)S(=O)(=O)c1ccccc1 [Example 951] was tested. Which “% inhibition … at 1 × 10^-7 M” value did it give?
A: 71%

Q: For CCSC[C@H](CC(C)C)N(C)Cc1ccc(C(=O)N[C@@H](CCSC)C(=O)O)c(-c2ccccc2C)c1 [Example 906], which “% inhibition … at 1 × 10^-7 M” value is on record?
A: 88%

Q: For CSCC[C@H](NC(=O)c1ccc(COCc2ccc(Cl)cc2)cc1-c1ccccc1C)C(=O)[O-].[Li+] [Example 933], which “% inhibition … at 1 × 10^-7 M” value is on record?
A: 91%

Same assay, conditions: 1 × 10^-8 M (Table 4)

Q: With CSCC[C@H](NC(=O)c1ccc(CN(CCC2CCCCC2)S(=O)(=O)c2ccccc2)cc1-c1ccccc1C)C(=O)O [Example 612] as the compound, how does the “% inhibition of farnesyltransferase at 1 × 10^-8 M” value (shortened to “% inhibition … at 1 × 10^-8 M”) read?
A: 96%

Q: How did the “% inhibition … at 1 × 10^-8 M” value turn out when CSCC[C@H](NC(=O)c1ccc(COCCc2ccccc2Cl)cc1-c1ccccc1C)C(=O)[O-].[Li+] [Example 588] was run?
A: 68%

Q: Which “% inhibition … at 1 × 10^-8 M” value does the source give for CSCC[C@H](NC(=O)c1ccc(COCc2cnc(-c3cccc(Cl)c3)s2)cc1-c1ccccc1C)C(=O)[O-].[Li+] [Example 899] here?
A: 88%

Same assay, conditions: read-out: % inhibition at 0.01 μM (**); Table 6, ** = 0.01 μM (footnote); title prints 0.01 mM

Q: With CSCC[C@H](NC(=O)c1ccc(CN2OCCC2COC2CCCCC2)cc1-c1ccccc1C)C(=O)O (stereo partly shown) [Example 1130, N-[4-(3-cyclohexyloxymethylisoxazolidin-2-ylmethyl)-2-(2-methylphenyl)benzoyl]methionine] as the compound, how does the inhibition at 0.01 µM read?
A: 88%

Q: CSCC[C@H](NC(=O)c1ccc(CN2CCN(Cc3ccccc3)CC2)cc1-c1ccccc1C)C(=O)O [Example 1025] was tested. Which inhibition at 0.01 µM did it give?
A: 91%

Q: Which inhibition at 0.01 µM does the source give for CSCC[C@H](NC(=O)c1ccc(CC(CO)CCC2CCCCC2)cc1-c1ccccc1C)C(=O)O (stereo partly shown) [Example 1299, N-[4-(2-(2-Cyclohexylethyl)-1-hydroxyprop-3-yl)-2-(2-methylphenyl)benzoyl]methionine Lithium Salt] here?
A: 96%

Q: With CSCC[C@H](NC(=O)c1ccc(CP(=O)(CCC2CCCCC2)CCC2CCCCC2)cc1-c1ccccc1C)C(=O)O [Example 1219, N-[4-(Di(2-cylohexylethyl)(oxophosphinyl)methyl)-2-(2-methylphenyl)benzoyl]methionine] as the compound, how does the inhibition at 0.01 µM read?
A: 85%

Q: How did the inhibition at 0.01 µM turn out when CSCC[C@H](NC(=O)c1ccc(CP(=O)(CC2CCCCC2)CC2CCCCC2)cc1-c1ccccc1C)C(=O)O [Example 1214, N-[4-(Di(cylohexylmethyl)(oxophosphinyl)methyl)-2-(2-methylphenyl)benzoyl]methionine] was run?
A: 92%

Same assay, conditions: read-out: % inhibition at 0.1 μM (*); Table 6, * = 0.1 μM (footnote); title prints 0.1 mM

Q: For CSCC[C@H](NC(=O)c1ccc(/C=C/c2ccc(Oc3ccc(Cl)cc3)cc2)cc1-c1ccccc1C)C(=O)O [Example 1016, N-[4-(2-(4-(4-chlorophenoxy)phenyl)ethen-1-yl)-2-(2-methylphenyl)benzoyl]methionine lithium salt], which inhibition at 0.1 µM is on record?
A: 92%

Same assay, conditions: read-out: % inhibition of farnesyltransferase at 1 × 10^-6 M; 1 × 10^-6 M (Table 2)

Q: Cc1ccccc1-c1cc(CN(C(C)C)C(C)(C)Cc2ccccc2)ccc1C(=O)N[C@@H](CCS(C)(=O)=O)C(=O)O [Example 321] was tested. Which inhibition at 1 µM did it give?
A: 90%

Q: How did the inhibition at 1 µM turn out when Cc1ccccc1-c1cc(CCc2cccc(Oc3ccccc3)c2)ccc1C(=O)N[C@@H](CC[S+](C)[O-])C(=O)O (stereo partly shown) [Example 460, N-[4-(2-(3-phenoxyphenyl)ethyl)-2-(2-methylphenyl)benzoyl]-2-amino-4-methylsulfinylbutanoic acid lithium salt] was run?
A: 88%

Q: CSCC[C@H](NC(=O)c1ccc(/C=C/c2ccccc2)cc1-c1ccccc1C)C(=O)O [Example 791, N-[4-(2-phenylethen-1-yl)-2-(2-methylphenyl)benzoyl]methionine] was tested. Which inhibition at 1 µM did it give?
A: 53%

Q: For CSCC[C@H](NC(=O)c1ccc(/C=C/CC2CCCCC2)cc1-c1ccccc1C)C(=O)O [Example 471, N-[4-(3-cyclohexylprop-1-enyl)-2-(2-methylphenyl)benzoyl]methionine lithium salt], which inhibition at 1 µM is on record?
A: 94%

Q: With CSCC[C@H](NC(=O)c1ccc(CCc2cccc(-c3ccccc3)c2)cc1-c1ccccc1C)C(=O)O [Example 793, N-[4-(2-(3-phenylphenyl)ethyl)-2-(2-methylphenyl)benzoyl]methionine lithium salt] as the compound, how does the inhibition at 1 µM read?
A: 94%

Q: Which inhibition at 1 µM does the source give for CCCCN(C)N(CCC1CCCCC1)Cc1ccc(C(=O)N[C@@H](CCS(C)(=O)=O)C(=O)O)c(-c2ccccc2C)c1 [Example 300] here?
A: 22%

Q: With CSCC[C@H](NC(=O)c1ccc(C[C@H]2CC[C@@H](c3ccccc3)CC2)cc1-c1ccccc1C)C(=O)O [Example 790, N-[4-syn-(4-phenylcyclohexylmethyl)-2-(2-methylphenyl)benzoyl]methionine lithium salt] as the compound, how does the inhibition at 1 µM read?
A: 88%

Q: How did the inhibition at 1 µM turn out when CSCC[C@H](NC(=O)c1ccc(CCc2ccc3ccccc3c2)cc1-c1ccccc1C)C(=O)O [Example 468, lithium salt] was run?
A: 96%

Same assay, conditions: read-out: % inhibition of farnesyltransferase at 1 × 10^-7 M; 1 × 10^-7 M (Table 3)

Q: With CSCC[C@H](NC(=O)c1ccc(CCc2ccc(Oc3ccccc3)nn2)cc1-c1ccccc1C)C(=O)O [Example 811, N-[4-(2-(3-phenoxylyridazin-6-yl)ethyl)-2-(2-methylphenyl)benzoyl]methionine lithium salt] as the compound, how does the inhibition at 0.1 µM read?
A: 85%

Same assay, conditions: read-out: % inhibition of farnesyltransferase at 1 × 10^-8 M; 1 × 10^-8 M (Table 4)

Q: How did the inhibition at 0.01 µM turn out when CSCC[C@H](NC(=O)c1ccc(CCc2ccc(Oc3ccc(Cl)cc3)cc2)cc1-c1ccccc1C)C(=O)O [Example 860, N-[4-(2-(4-(4-chlorophenoxy)phenyl)ethyl)-2-(2-methylphenyl)benzoyl]methionine] was run?
A: 85%
